Test results as given in paper PMC3929086, “Targeted manipulation of the sortilin–progranulin axis rescues progranulin haploinsufficiency” (Human Molecular Genetics, 2013).
“Also recorded” adds a separate entry of the source.

Legend:
[1] = system: SORT1-mediated PGRN endocytosis; assay: Quantitative DyL-rPGRN endocytosis assay in COS-1^SORT1 cells; format: cell-based, human; conditions: 1 h; for inhibition of full-length PGRN endocytosis: COS-1^SORT1, ligand 10 μM (Fig. 4 legend), added simultaneously with DyL-rPGRN, vs vehicle
Method: COS-1 cells seeded on a 96-well black plate 1 day before were transfected with pCMV-SORT1 vector. After 24 h, cells were treated with fluorescence-tagged rPGRN (DyL-rPGRN) pre-labeled by DyLight™ 594 antibody labeling kit (Thermo Scientific). The DyL-rPGRN was diluted in OptiMEM to tested concentrations and incubated with the cells for 1 h for endocytosis. The cells were then washed with cold PBS and then fixed by 4% paraformaldehyde. After washing twice, each well was filled with PBS prior scanning. The total PGRN fluorescent signal from the cells was obtained by a plate reader with 593/618 nm (Ex/Em) settings. The endocytosis signal was normalized by the total nuclei signal obtained by staining with a Hoechst 33342 dye. Baseline endocytosis signal was defined as a signal from medium-only-treated cells, whereas the 100% endocytosis level was set as the signal obtained from cells treated with 50 nM DyL-rPGRN. For testing SORT1 ligands, DyL-rPGRN and the peptide were added simultaneously to the cells. For testing of PGRN binders, the binder was pre-incubated with DyL-rPGRN for 1 h before adding to the cells. For qualitative analysis, images from each well were captured by BD Pathway 855 system using a 20× magnification setting.

PGRN-SORT1 interaction = assay: PGRN-SORT1 co-immunoprecipitation; format: biochemical, human; conditions: HEK293 lysate with Flag-SORT1, 100 nM rPGRN, peptide at 10 M (sic; method 20 μM), densitometry
Method: HEK293T cells were transfected empty vector or pCMV-SORT1-Flag vector for 48 h. Then, cells were lysed by using Co-IP buffer. Pre-incubation was performed with 300 μg of lysate protein mixed with 20 μM NTS, human PGRN(588–593) peptide or mouse PGRN(584–589) peptide for 1 h. Then, rPGRN (100 nM) was added into the protein G beads pre-cleared supernatant and mixed for 30 min. Next, anti-Flag M2 agarose (Sigma) was added and mixed for another 4 h. The agarose was collected by centrifugation at 1000 g for 3 min and washed with Co-IP buffer six times. Captured protein was eluted from the beads using loading buffer and analyzed by western blot.

SORT1 [2] = assay: PGRN endocytosis in M17 cells overexpressing SORT1; format: cell-based; conditions: for endocytosis of rPGRN: M17^SORT1 cells, rPGRN 500 ng/ml, 60 min, immunofluorescence
Method: M17 cells seeded in 12-well culture plates (western blot) or on glass coverslips in 24-well culture plate (immunofluorescence) were transfected with pEGFP-N1 (Clontech) or pCMV-SORT1 (OriGene) vectors. Next day, the cells were changed into serum-free medium 1 h before addition of rPGRN (500 ng/ml) and treated for 60 min. The cells were then put on ice and washed with cold PBS. For western blot, cells were lysed in cold M-Per protein extraction buffer followed by standard procedures as mentioned. For immunofluorescence analyses, cells were fixed in 4% paraformaldehyde solution followed by PBS washes. The cells were then incubated in blocking buffer (PBS, 5% goat serum, 0.1% saponin) for 1 h at room temperature followed by incubation in primary antibody overnight at 4°C. The cells were incubated with secondary antibodies (1:1000) for 1 h at room temperature. The coverslips were then mounted onto slides and waited overnight before analysis. Image analysis was performed by Zeiss LSM 510 META confocal microscope using 60× magnification setting.

SORT1–PGRN interaction = assay: MSD-based SORT1–PGRN interaction assay; format: biochemical, human; conditions: 200 nM tagged rPGRN, SORT1-Flag captured on MSD plate
Method: M17 cells were transfected with pCMV-SORT1-Flag for 48 h. Then, the cell lysate was harvested by the same method used in the co-immunoprecipitation assay. Expression of SORT1-Flag protein was confirmed by western blot. MSD plate was first coated with the Flag M2 antibody (Sigma). Following an overnight incubation at 4°C, the plate was blocked for 2 h and then washed prior to addition of 5 µg/well of lysate protein containing SORT1-Flag protein. After overnight incubation at 4°C, it was then washed and added with 200 nM of either N-6His- or C-6His-tagged rPGRN pre-incubated with either vehicle, 20 µM or 200 µM of BVFP, for 30 min at room temperature. Then plate was then incubated for 2 h, washed and incubated with a mixture of PCDGF antibody and a SULFO-TAG-labeled anti-rabbit IgG antibody for 2 h. After final wash, the plate was read by the MSD Sector Imager 2400.

neutrophil elastase = assay: Neutrophil elastase digestion of synthetic PGRN peptide, MALDI-MS; format: in vitro ADME
Method: An enzymatic reaction was set up with 7 μg of custom-synthesized PGRN(584–593) peptide (Mayo peptide synthesis core) and 20 μg of NE in a 25 μl reaction at 37°C. Every 10 min, 4 μl of the mixture was collected and diluted 10 times in a solvent mixture (50% acetonitrile:50% water:0.1% acetic acid) until 1 h had passed. For MALDI-MS analysis, 1 μl of the diluted reaction mixture was dried on a MS gold chip and then layered with a concentrated sinipinic acid matrix on top for crystallization. Afterwards, the samples were analyzed by the Bio-Rad MALDI-MS system.

[3] = system: PGRN endocytosis in SORT1^KO-hESCs; assay: DyL-rPGRN endocytosis in SORT1^KO-hESCs; format: cell-based, human; conditions: SORT1^KO-hESC compared with WT-hESC
Description: To determine whether BVFP, when bound to PGRN, disrupts full-length PGRN and SORT1 binding, we devised a SORT1-dependent rPGRN precipitation assay utilizing the Meso-Scale Discovery (MSD) system (Supplementary Material, Fig. S4A and B). […] To include a higher-affinity PGRN588–593 motif binder as a positive control, an antibody targeting the motif, PGRN-CT antibody, was made for validating the approach (Fig. 5F). […] First, we found SORT1 was abundantly expressed in the wild-type hESCs (Fig. 5H). Similar to the results from COS-1^SORT1 cells, BVFP and PGRN-CT antibody inhibited endocytosis of DyL-rPGRN by 22 and 39%, respectively, under the same experimental conditions in wild-type hESCs (Fig. 5I left).
COS-1 cells seeded on a 96-well black plate 1 day before were transfected with pCMV-SORT1 vector. After 24 h, cells were treated with fluorescence-tagged rPGRN (DyL-rPGRN) pre-labeled by DyLight™ 594 antibody labeling kit (Thermo Scientific). The DyL-rPGRN was diluted in OptiMEM to tested concentrations and incubated with the cells for 1 h for endocytosis. The cells were then washed with cold PBS and then fixed by 4% paraformaldehyde. After washing twice, each well was filled with PBS prior scanning. The total PGRN fluorescent signal from the cells was obtained by a plate reader with 593/618 nm (Ex/Em) settings. […]

SORT1 [4] = assay: SORT1 protein level in M17 cells (western blot); format: cell-based; conditions: M17, rPGRN at 50 ng/ml, 1, 2 and 4 hours
Method: PGRN, SORT1, GFP, GAPDH and β-actin proteins were analyzed using 10% Tris–glycine polyacrylamide gel by SDS–PAGE. After electrophoresis, proteins on gel were transblotted to PVDF membranes followed by standard immunoblotting protocols.

Q: Which results are given for “ALRQLL [human PGRN588–593, custom-synthesized C-terminal peptide of human PGRN, -ALRQLL]”?
A: inhibition of full-length PGRN endocytosis [1]: 93%; inhibition of PGRN–SORT1 co-immunoprecipitation (PGRN-SORT1 interaction): significantly reduced the amount of rPGRN

Q: “ELYENKPRRPYIL [NTS, neurotensin, reference compound]” was tested. Which “inhibition of full-length PGRN endocytosis” value [1] did it give?
A: 90%

Q: What about the “inhibition of PGRN–SORT1 co-immunoprecipitation” value (PGRN-SORT1 interaction) of the same molecule?
A: significantly reduced the amount of rPGRN

Q: Which “endocytosis of tagged rPGRN” value (SORT1 [2]; M17 cells expressing titrated amounts of SORT1, western blot) does the source give for “N-rP: human recombinant PGRN with 6-histidine tag on the amino-terminus” here?
A: dependently endocytosed

Q: And the “rPGRN binding to immobilized SORT1” value (SORT1–PGRN interaction)?
A: specific binding signal

Q: How did the “cleavage by neutrophil elastase” value (neutrophil elastase; 7 μg peptide, 20 μg NE, 25 μl, 37°C, sampled every 10 min to 1 h) turn out when “PGRN574–593 peptide: synthetic PGRN574–593 peptide, molecular weight 2430 Da” was run?
A: enzymatically cleaved by recombinant elastase (EL) in a time-dependent manner

Q: And the “cleavage site / residues removed by elastase” value (neutrophil elastase; product 1806 Da from 2430 Da)?
A: between residues Ala-588 and Leu-589; also recorded: last five residues were removed by EL

Q: For “VPRPLL [mouse Pgrn584–589, mouse ortholog peptide of PGRN588–593, -VPRPLL]”, which “inhibition of full-length PGRN endocytosis” value [1] is on record?
A: 73%

Q: What about the “inhibition of PGRN–SORT1 co-immunoprecipitation” value (PGRN-SORT1 interaction) of the same molecule?
A: significantly reduced the amount of rPGRN

B1: DyL-rPGRN: DyLight™-594 fluorescence-labeled rPGRN (conjugate, UniProt P28799 1-593, looked up)
chain: MWTLVSWVALTAGLVAGTRCPDGQFCPVACCLDPGGASYSCCRPLLDKWPTTLSRHLGGPCQVDAHCSAGHSCIFTVSGTSSCCPFPEAVACGDGHHCCPRGFHCSADGRSCFQRSGNNSVGAIQCPDSQFECPDFSTCCVMVDGSWGCCPMPQASCCEDRVHCCPHGAFCDLVHTRCITPTGTHPLAKKLPAQRTNRAVALSSSVMCPDARSRCPDGSTCCELPSGKYGCCPMPNATCCSDHLHCCPQDTVCDLIQSKCLSKENATTDLLTKLPAHTVGDVKCDMEVSCPDGYTCCRLQSGAWGCCPFTQAVCCEDHIHCCPAGFTCDTQKGTCEQGPHQVPWMEKAPAHLSLPDPQALKRDVPCDNVSSCPSSDTCCQLTSGEWGCCPIPEAVCCSDHQHCCPQGYTCVAEGQCQRGSEIVAGLEKMPARRASLSHPRDIGCDQHTSCPVGQTCCPSLGGSWACCQLPHAVCCEDRQHCCPAGYTCNVKARSCEKEVVSAQPATFLARSPHVGVKDVECGEGHFCHDNQTCCRDNRQGWACCPYRQGVCCADRRHCCPAGFRCAARGTKCLRREAPRWDAPLRDPALRQLL
modifications: full-length DyLight 594 label
notes: DyLight™-594 fluorescence-labeled rPGRN
Q: Which DyL-rPGRN endocytosis response ([1]; COS-1^SORT1, DyL-rPGRN 0 to 50 nM, 593/618 nm) does the source give for B1 here?
A: linear, non-saturated endocytosis response

Q: And the DyL-rPGRN endocytosis signal [3]?
A: significantly lower signal compared with the WT-hESCs

B2: rPGRN: wild-type human recombinant PGRN protein from stable HEK293 cells (protein)
chain: TRCPDGQFCPVACCLDPGGASYSCCRPLLDKWPTTLSRHLGGPCQVDAHCSAGHSCIFTVSGTSSCCPFPEAVACGDGHHCCPRGFHCSADGRSCFQRSGNNSVGAIQCPDSQFECPDFSTCCVMVDGSWGCCPMPQASCCEDRVHCCPHGAFCDLVHTRCITPTGTHPLAKKLPAQRTNRAVALSSSVMCPDARSRCPDGSTCCELPSGKYGCCPMPNATCCSDHLHCCPQDTVCDLIQSKCLSKENATTDLLTKLPAHTVGDVKCDMEVSCPDGYTCCRLQSGAWGCCPFTQAVCCEDHIHCCPAGFTCDTQKGTCEQGPHQVPWMEKAPAHLSLPDPQALKRDVPCDNVSSCPSSDTCCQLTSGEWGCCPIPEAVCCSDHQHCCPQGYTCVAEGQCQRGSEIVAGLEKMPARRASLSHPRDIGCDQHTSCPVGQTCCPSLGGSWACCQLPHAVCCEDRQHCCPAGYTCNVKARSCEKEVVSAQPATFLARSPHVGVKDVECGEGHFCHDNQTCCRDNRQGWACCPYRQGVCCADRRHCCPAGFRCAARGTKCLRREAPRWDAPLRDPALRQLL
modifications: left off: His6, N-terminal, state not stated
Q: With B2 as the molecule, how does the “endocytosis of rPGRN” value (SORT1 [2]) read?
A: significantly endocytosed

Q: And the “subcellular localization after endocytosis” value (SORT1 [2]; M17 cells overexpressing SORT1)?
A: endolysosomal localization

Q: And the “SORT1 level after rPGRN treatment” value (SORT1 [4])?
A: No significant changes in SORT1

B3: rPGRN1-588: recombinant carboxyl-terminal-truncated PGRN 1–588 (protein)
chain: TRCPDGQFCPVACCLDPGGASYSCCRPLLDKWPTTLSRHLGGPCQVDAHCSAGHSCIFTVSGTSSCCPFPEAVACGDGHHCCPRGFHCSADGRSCFQRSGNNSVGAIQCPDSQFECPDFSTCCVMVDGSWGCCPMPQASCCEDRVHCCPHGAFCDLVHTRCITPTGTHPLAKKLPAQRTNRAVALSSSVMCPDARSRCPDGSTCCELPSGKYGCCPMPNATCCSDHLHCCPQDTVCDLIQSKCLSKENATTDLLTKLPAHTVGDVKCDMEVSCPDGYTCCRLQSGAWGCCPFTQAVCCEDHIHCCPAGFTCDTQKGTCEQGPHQVPWMEKAPAHLSLPDPQALKRDVPCDNVSSCPSSDTCCQLTSGEWGCCPIPEAVCCSDHQHCCPQGYTCVAEGQCQRGSEIVAGLEKMPARRASLSHPRDIGCDQHTSCPVGQTCCPSLGGSWACCQLPHAVCCEDRQHCCPAGYTCNVKARSCEKEVVSAQPATFLARSPHVGVKDVECGEGHFCHDNQTCCRDNRQGWACCPYRQGVCCADRRHCCPAGFRCAARGTKCLRREAPRWDAPLRDPA
modifications: left off: His6, N-terminal, state not stated
Q: B3 was tested. Which “endocytosis of rPGRN” value (SORT1 [2]) did it give?
A: failed to be endocytosed
